“Also recorded” adds a separate entry of the source. Marks after values point to notes of the source that are not given here.
How the values were obtained:
[1] = tested on: peroxisome proliferator-activated receptor-gamma (PPARγ), CCAAT-enhancer-binding protein α (C/EBPα), and lipoprotein lipase; conditions: human preadipocytes; no statistical differences; cited from earlier work
[2] = tested on: adipose tissue and adipocytes; assay: Randomized controlled trial in (db-/db-) mice: histologic examination of treated skin and subcutaneous fat; assay type: in vivo, mouse; conditions: treated flank, after 21 days of 5 mM topical treatment
Description: (§1) A randomized controlled trial was conducted on (db-/db-) mice. Mice six weeks old were prospectively randomized into groups and assigned to the following treatment conditions (n=5 animals per group): [table] At the start of the study, hair on the right flank of each animal was clipped and depilated. Animals were kept in identical conditions and fed ab libitum. Animals were weighed daily. Following 21 consecutive days of treatment, samples of skin and adjacent fat were obtained from the treated flanks, fixed in formalin, and stained with hematoxylin and eosin for histologic examination.

[3] = tested on: human preadipocytes; conditions: human preadipocytes in primary cell culture; cited from earlier work
[4] = Randomized controlled trial in (db-/db-) mice, topical to flank: body weight change; assay type: in vivo, mouse; conditions: 21-day study; for Absolute weight change / Relative weight change: 5 mM topical, 0.1 cc to flank daily
Description: as §1

[5] = tested on: dorsocervical fat pad; assay: Randomized double-blind study in HIV lipodystrophy subjects, dorsocervical fat by US/CT; assay type: in vivo; conditions: human, e.g. 0.03% in transdermal vehicle once a day, e.g. after 3 months
Description: The following experiment describes a randomized, double-blind study in human subjects to test whether locally administered Tafluprost reduces fat in the dorsocervical fat pad of HIV-seropositive patients on antiretroviral therapy who are suffering from HIV lipodystrophy. Eligible subjects (for example, n=40) with HIV lipodystrophy and abnormal accumulation of fat on the dorsal neck are entered into a randomized double-blind study. Subjects are randomized in 1:1 fashion to receive either Tafluprost, for example, 0.03%, in a suitable transdermal vehicle, or vehicle alone. The vehicle is, for example, Lipoderm® (PCCA, Houston, Tex.). Unit-dose syringes (for example, 0.5 ml per syringe) are furnished to subjects by a study pharmacist; syringes are unlabeled as to the presence of Tafluprost or vehicle. Subjects are instructed to apply, once a day, the contents of one syringe to the affected area on the back of the neck. Serial ultrasound (US) and/or computed tomography (CT) scans are conducted at the beginning of the study and then at monthly intervals. Treatment continues for 6 months.

Row | SMILES | inhibition of expression of adipogenic genes PPARγ, C/EBPα and lipoprotein lipase [1] | adipose thickness and adipocyte size in histologic sections, compared to Vehicle [2] | adipocyte differentiation [3] | Absolute weight change [4] | Relative weight change [4] | weight gain ([4]; topical) | reduction in depth and/or cross-sectional area of dorsocervical fat by serial US or CT, compared to vehicle alone [5] | weight loss ([4]; topical)
1 | CCNC(=O)CCC/C=C\C[C@@H]1[C@@H](/C=C/[C@@H](O)CCc2ccccc2)[C@H](O)C[C@@H]1O [Bimatoprost] | slightly more inhibition than Tafluprost | did not show these effects | 30 % of control | 6.4 g | 22.9% over Day 0 | 23-24 % of baseline body weight | – | –
2 | CC(C)OC(=O)CCC/C=C\C[C@@H]1[C@@H](/C=C/C(F)(F)COc2ccccc2)[C@H](O)C[C@@H]1O [Tafluprost] | – | reduced adipose thickness and adipocyte size; also recorded: inhibited adipose tissue and adipocytes | 40 % of control | −2.4* g | −8.2% over Day 0 | – | more reduction in the depth and/or cross-sectional area of dorsocervical fat | about 8 % of baseline body weight

— patent publication US8569376B2, “Methods and compositions for reducing body fat and adipocytes” (Topokine Therapeutics, Inc., priority 2011, dated 2013)
